From ChEMBL document CHEMBL1121707, “Synthesis of 2'-deoxy-L-fucopyranosylcarminomycinone and -epsilon-pyrromycinone as well as 2'-deoxy-D-erythro-pentopyranosyldaunomycinone, -carminomycinone, and -epsilon-pyrromycinone” (1981)

Columns and labels:
Bacillus subtilis [1] = experiment: Tested for antibiotic activity against Bacillus subtilis-ATTCC 6633 at dose 12.5 ug/mL via plate assay; type: functional
L1210 [2] = experiment: Average weight change after administration from 1-9 days at 12.8 mg/kg intraperitoneally in BDF1 mice; type: functional, Mus musculus; conditions: route intraperitoneal
L1210 [3] = experiment: Average weight change after administration at 3.2 mg/kg intraperitoneally in mice on day 1 in experiment 1; type: functional, Mus musculus; conditions: route intraperitoneal
L1210 [4] = experiment: Average weight change after administration at 1.6 mg/kg intraperitoneally in mice on day 1 in experiment 2; type: functional, Mus musculus; conditions: route intraperitoneal
L1210 [5] = experiment: Average weight change after administration at 25.6 mg/kg intraperitoneally in mice on day 1 in experiment 2; type: functional, Mus musculus; conditions: route intraperitoneal
Bacillus subtilis [6] = experiment: Tested for antibacterial effect against Bacillus subtilis-8 at dose 12.5 ug/mL; type: functional
L1210 [7] = experiment: Average weight change after administration from 1-9 days at 1.6 mg/kg intraperitoneally in BDF1 mice; type: functional, Mus musculus; conditions: route intraperitoneal
L1210 [8] = experiment: Average weight change after administration from 1-9 days at 0.4 mg/kg intraperitoneally in BDF1 mice; type: functional, Mus musculus; conditions: route intraperitoneal
Bacillus subtilis [9] = experiment: Tested for antibacterial effect against Bacillus subtilis-8 at dose 6.25 ug/mL; type: functional
L1210 [10] = experiment: Average weight change after administration at 1.6 mg/kg intraperitoneally in mice on day 1 in experiment 1; type: functional, Mus musculus; conditions: route intraperitoneal
L1210 [11] = experiment: Average weight change after administration at 0.4 mg/kg intraperitoneally in mice on day 1 in experiment 1; type: functional, Mus musculus; conditions: route intraperitoneal
Bacillus subtilis [12] = experiment: Tested for antibacterial effect against Bacillus subtilis-8 at dose 25 ug/mL; type: functional
L1210 [13] = experiment: Average weight change after administration at 6.4 mg/kg intraperitoneally in mice on day 1 in experiment 2; type: functional, Mus musculus; conditions: route intraperitoneal
L1210 [14] = experiment: Average weight change after administration at 12.8 mg/kg intraperitoneally in mice on day 1 in experiment 1; type: functional, Mus musculus; conditions: route intraperitoneal
L1210 [15] = experiment: Average weight change after administration from 1-9 days at 6.4 mg/kg intraperitoneally in BDF1 mice; type: functional, Mus musculus; conditions: route intraperitoneal
L1210 [16] = experiment: Average weight change after administration at 12.8 mg/kg intraperitoneally in mice on day 1 in experiment 2; type: functional, Mus musculus; conditions: route intraperitoneal
Bacillus subtilis [17] = experiment: Tested for antibacterial effect against Bacillus subtilis-8 at dose 50 ug/mL; type: functional
L1210 [18] = experiment: Average weight change after administration at 3.2 mg/kg intraperitoneally in mice on day 1 in experiment 2; type: functional, Mus musculus; conditions: route intraperitoneal
L1210 [19] = experiment: Average weight change after administration at 51.2 mg/kg intraperitoneally in mice on day 1 in experiment 2; type: functional, Mus musculus; conditions: route intraperitoneal
L1210 [20] = experiment: Average weight change after administration at 0.8 mg/kg intraperitoneally in mice on day 1 in experiment 1; type: functional, Mus musculus; conditions: route intraperitoneal
Bacillus subtilis [21] = experiment: Tested for antibacterial effect against Bacillus subtilis-8 at dose 3.1 ug/mL; type: functional
L1210 [22] = experiment: Average weight change after administration at 6.4 mg/kg intraperitoneally in mice on day 1 in experiment 1; type: functional, Mus musculus; conditions: route intraperitoneal
L1210 [23] = experiment: Average weight change after administration from 1-9 days at 0.8 mg/kg intraperitoneally in BDF1 mice; type: functional, Mus musculus; conditions: route intraperitoneal
L1210 [24] = experiment: Average weight change after administration from 1-9 days at 3.2 mg/kg intraperitoneally in BDF1 mice; type: functional, Mus musculus; conditions: route intraperitoneal

**Q.** `CC(=O)[C@]1(O)Cc2c(O)c3c(c(O)c2C(O)C1)C(=O)c1c(O)cccc1C3=O` (some centres undefined) [CARMINOMYCINONE] was tested. Which Inhibition zone (Bacillus subtilis [1]) did it give?
**A.** Its Inhibition zone is 20.2 mm.

**Q.** `CC(=O)[C@]1(O)Cc2c(O)c3c(c(O)c2[C@@H](O[C@H]2C[C@H](O)[C@H](O)[C@H](C)O2)C1)C(=O)c1c(O)cccc1C3=O` was tested. Which Average weight change (L1210 [2]) did it give?
**A.** The Average weight change was -1.6.

**Q.** What about the Average weight change (L1210 [3]) of the same compound?
**A.** The Average weight change was -0.9.

**Q.** What about the Average weight change (L1210 [4]) of the same compound?
**A.** The Average weight change was -0.6.

**Q.** What about the Average weight change (L1210 [5]) of the same compound?
**A.** The Average weight change was -1.2.

**Q.** And the Inhibition zone (Bacillus subtilis [6])?
**A.** The Inhibition zone was 21.3 mm.

**Q.** And the Average weight change (L1210 [7])?
**A.** The Average weight change was 0.6.

**Q.** What about the Average weight change (L1210 [8]) of the same compound?
**A.** Its Average weight change is 0.6.

**Q.** And the Inhibition zone (Bacillus subtilis [9])?
**A.** Its Inhibition zone is 19.5 mm.

**Q.** And the Average weight change (L1210 [10])?
**A.** The Average weight change was -0.8.

**Q.** And the Average weight change (L1210 [11])?
**A.** The Average weight change was -0.8.

**Q.** What about the Inhibition zone (Bacillus subtilis [12]) of the same compound?
**A.** Its Inhibition zone is 21.5 mm.

**Q.** What about the Average weight change (L1210 [13]) of the same compound?
**A.** Its Average weight change is 0.7.

**Q.** What about the Average weight change (L1210 [14]) of the same compound?
**A.** The Average weight change was -0.4.

**Q.** And the Average weight change (L1210 [15])?
**A.** The Average weight change was 2.4.

**Q.** What about the Average weight change (L1210 [16]) of the same compound?
**A.** The Average weight change was 0.3.

**Q.** And the Inhibition zone (Bacillus subtilis [17])?
**A.** The Inhibition zone was 21.5 mm.

**Q.** And the Average weight change (L1210 [18])?
**A.** The Average weight change was 0.2.

**Q.** And the Average weight change (L1210 [19])?
**A.** Its Average weight change is -1.9.

**Q.** What about the Average weight change (L1210 [20]) of the same compound?
**A.** Its Average weight change is 1.2.

**Q.** What about the Inhibition zone (Bacillus subtilis [21]) of the same compound?
**A.** The Inhibition zone was 17.2 mm.

**Q.** And the Average weight change (L1210 [22])?
**A.** The Average weight change was -1.1.

**Q.** And the Average weight change (L1210 [23])?
**A.** The Average weight change was 2.3.

**Q.** What about the Average weight change (L1210 [24]) of the same compound?
**A.** Its Average weight change is -0.3.
